Data set [1] is described as follows: Intrinsic dissolution rate. It is filed as physicochemical. The text has this:
(§1) In one embodiment, a small molecule drug formulation includes a small molecule psychotherapeutic drug, such as a small molecule antipsychotic, dopamine receptor agonist, dopamine receptor antagonist, serotonin receptor agonist, serotonin receptor antagonist, and serotonin uptake inhibitor drug. […] R209130-base has the molecular formula C19H20FNO. R209130-mandelic acid salt (R209130) has the molecular formula C19H20FNO.C8H8O3. R209130-tartaric acid salt (R167154) has the molecular formula C19H20FNO.C4H6O6.

A further data set in a line: Solubility in H2O. Particulars: pH 7.2.
From the text: as §1

A short description of a further data set: Solubility at pH 7. The settings on record: cell states pH 7.2.
From the text: as §1

The nature of data set [2]: Solubility in benzyl benzoate (BB). Particulars: temperature not given.
From the text: as §1

Data set [3] is described as follows: Solubility in benzyl alcohol (BA). Particulars: temperature not given.
From the text: as §1

SMILES strings stand for the structures.

The compound `Cc1nc2n(c(=O)c1CCN1CCC(c3noc4cc(F)ccc34)CC1)CCCC2` [Risperidone base, Risperidone] gave an Intrinsic dissolution rate in data set [1] of 0.0025 mg/cm^2 · min.
Regarding `Cc1nc2n(c(=O)c1CCN1CCC(c3noc4cc(F)ccc34)CC1)CCCC2` [Risperidone pamoate, Risperidone-pamoate], the “Solubility in H2O” value in the data set “Solubility in H2O” is given as 0.2 (pH 7.2) mg/ml. For the same compound, the “Solubility at pH 7” value in the data set “Solubility at pH 7” is listed as 0.2 (pH 7.2) mg/ml. The “Solubility in BB” value in data set [2] stood at 50 µg/mL. In data set [3], the “Solubility in BA” value turned out to be 2970 µg/mL.

The values above are taken from patent US9597402B2, “Sustained release small molecule drug formulation” (DURECT CORPORATION, priority 2005, dated 2017).
